Data as given in PMC10178127, “Immunomodulatory Effects of the Pea Defensin Psd1 in the Caco-2/Immune Cells Co-Culture upon Candida albicans Infection” (International Journal of Molecular Sciences, 2023).

Tested on: CD14+ blood monocytes
Test: Multiplex xMAP cytokine production, direct stimulation of monocytes
Format: cell-based, human
Details: 24 h
Description: Primary peripheral blood mononuclear cells (PBMCs) collected from healthy donors were purchased from American Type Culture Collection (ATCC PCS-800-011). Primary CD14^+ blood monocytes were isolated from PBMCs by adherence according to standard technique. Monocyte-derived mature dendritic cells (moDCs) were obtained from CD14^+ blood monocytes according to the previously reported protocol. Briefly, blood monocytes were incubated in a complete RPMI-1640 medium (Capricorn Scientific, Ebsdorfergrund, Germany), containing 10% fetal bovine serum (FBS, Capricorn Scientific, Ebsdorfergrund, Germany), 1× antibiotic-antimycotic solution (Invitrogen, Waltham, MA, USA), 800 U/mL rhGM-CSF (Sci-Store, Moscow, Russia) and 500 U/mL rhIL-4 (Sci-Store) for 3 days in CellXpert C170i CO2-incubator (Eppendorf, Hamburg, Germany). Fresh complete RPMI-1640 medium with rhGM-CSF and rhIL-4 was added to the culture on day 3. On day 5, fresh complete RPMI-1640 containing 100 U/mL rhTNF-α (Sigma-Aldrich, St. Louis, MO, USA) as well as 800 U/mL rhGM-CSF and 500 U/mL rhIL-4 was added and the culture was incubated for another 4 days until full maturation.
Monocytes and moDCs were seeded into the wells of 48- and 24-well plates in the complete RPMI-1640 medium supplemented with 10% human AB serum (HABS, Capricorn Scientific) without antibiotics 24 h prior to the experiment, and kept in a humidified CO2-incubator (5% CO2, 37 °C). After 24 h, the medium in the wells of the 48-well plate was replaced by fresh complete RPMI-1640 medium with 10% HABS, supplemented with 2 µM of Psd1 for the sample wells or fresh medium alone for the control wells. Medium in the wells of the 24-well plate was replaced by fresh complete RPMI-1640 medium with 10% human serum without antibiotics. Then, Millicell inserts with Caco-2 monolayers with TEER > 400 Ωcm^2 were placed into the wells of the 24-well plate, containing monocytes or moDCs. Wells with Millicell inserts with Caco-2 monolayers without immune cells were used as control wells. Medium in apical chambers of Millicell inserts was replaced by fresh complete RPMI-1640 with 10% human serum medium containing Psd1 at the final concentration of 2 µM or Candida albicans at the concentration of 5 × 10^4 cells/mL or yeast cells together with the pea defensin at the same concentration. Fresh complete RPMI-1640 medium only with 10% human serum and without antibiotics was used in control wells. Plates were kept in CO2-incubator (5% CO2, 37 °C) for another 24 h. Culture supernatants from the wells of the 48-well plate and basolateral chambers of the 24-well plate were collected and stored at −70 °C degrees less than one month prior to the analytes assessment.
The following 48 analytes were measured at a protein level by multiplex xMAP technology using the MILLIPLEX Human Cytokine/Chemokine/Growth Factor Panel A kit (HCYTA-60K-PX48, Merck, Darmstadt, Germany): sCD40L, EGF, Eotaxin-1/CCL11, FGF-2/FGF-basic, Flt-3 ligand, Fractalkine/CX3CL1, G-CSF, GM-CSF, GROα/CXCL1, IFNα2, IFNγ, IL-1α, IL-1β, IL-1RA, IL-2, IL-3, IL-4, IL-5, IL-6, IL-7, IL-8/CXCL8, IL-9, IL-10, IL-12(p40), IL-12(p70), IL-13, IL-15, IL-17A/CTLA8, IL-17E/IL-25, IL-17F, IL-18, IL-22, IL-27, IP-10/CXCL10, MCP-1/CCL2, MCP-3/CCL7, M-CSF, MDC/CCL22, MIG/CXCL9, MIP-1α/CCL3, MIP-1β/CCL4, PDGF-AA, PDGF-AB/BB, RANTES/CCL5, TGFα, TNFα, TNFβ, and VEGF-A. Multiplex-based assay read-out was performed using the MAGPIX system (Merck) with the xPONENT 4.2 software (Merck) in accordance with the manufacturer’s instruction with overnight incubation of the samples with primary antibodies. A final analysis was carried out with the MILLIPLEX Analyst v5.1 software (Merck). Measurements were performed twice for each sample. Release of the analytes in control and experimental samples was compared with an unpaired two-sample t-test using GraphPad Prism v.8.0.1 (GraphPad Software, Inc., San Diego, CA, USA). The p values ≤ 0.05 were considered significant.

## Psd1: pea defensin from Pisum sativum (UNIPROT P81929), recombinant peptide overexpressed in Escherichia coli (KTCEHLADTYRGVCFTNASCDDHCKNKAHLISGTCHNWKCFCTQNC; UniProt P81929 1-46, looked up)
Mono+Psd1, 2 µM, supernatant
  EGF level: 8.15 pg/mL
  Eotaxin level: <3.52↓ pg/ml
  FGF-2 level: 41.38 pg/mL
  FLT-3L level: 0.65 pg/mL
  Fractalkine level: <17.82↓ pg/ml
  G-CSF level: 52.17 pg/mL
  GM-CSF level: 12.61 pg/mL
  GROa level: 1254 pg/mL
  IFNa2 level: 12.78 pg/mL
  IFNg level: <2.23↓ pg/ml
  IL-1RA level: 4.01 pg/mL
  IL-1a level: 14.17 pg/mL
  IL-1b level: <2.26↓ pg/ml
  IL-2 level: 1.12 pg/mL
  IL-3 level: <0.60↓ pg/ml
  IL-4 level: <1.14↓ pg/ml
  IL-5 level: <0.30↓ pg/ml
  IL-6 level: 478.09 pg/mL
  IL-7 level: <0.38↓ pg/ml
  IL-8 level: 6178 pg/mL
  IL-9 level: 3.19 pg/mL
  IL-10 level: 22.94 pg/mL
  IL-12 (p40) level: 19.24 pg/mL
  IL-12 (p70) level: <1.68↓ pg/ml
  IL-13 level: 11.06 pg/mL
  IL-15 level: 1.44 pg/mL
  IL-17A level: 3.18 pg/mL
  IL-17E/IL-25 level: <18.85↓ pg/ml
  IL-17F level: <19.03↓ pg/ml
  IL-18 level: 0.8 pg/mL
  IL-22 level: 10.35 pg/mL
  IL-27 level: 59.83 pg/mL
  IP-10 level: 165.32 pg/mL
  M-GSF level: 29.48 pg/mL
  MCP-1 level: 6617 pg/mL
  MCP-3 level: 371.63 pg/mL
  MDC level: 864.86 pg/mL
  MIG level: 1166 pg/mL
  MIP-1a level: 118.6 pg/mL
  MIP-1b level: 254.87 pg/mL
  PDGF-AA level: 26.77 pg/mL
  PDGF-AB/BB level: 543.88 pg/mL
  RANTES level: 59.35 pg/mL
  TGF-a level: 2.23 pg/mL
  TNFa level: 90.69 pg/mL
  TNFb level: 2.7 pg/mL
  VEGFa level: 4.16 pg/mL
  sCD40L level: 98.67 pg/mL
monocytes, 2 μM
  increase in IL-12, IL-15, IL-27 and MCP-1: failed to reach statistical significance
  production of TNFα, IL-6, IL-8, IP-10, MCP-3, and G-CSF: increased
